Source: patent US5403574A, “Evaluation and treatment of the multidrug resistance phenotype” (priority 1992, dated 1995)
Entries after “also recorded” stand apart in the source; their conditions may differ.

Legend:
P-glycoprotein = conditions: cited from earlier work
mitochondrial function = conditions: typical loading activities; cited from earlier work
tumors = conditions: human, in vivo; cited from earlier work
[1] = test system: V79 cells (multidrug resistance P-glycoprotein)
Description: (§3) Accumulation of Tc-MIBI in LZ cells (highly expressing multidrug resistance) (0) and V79 cells (modestly expressing multidrug resistance) (.cndot.).
(§4) Cell-associated activity was then determined.

[2] = test system: LZ cells (multidrug resistance P-glycoprotein)
Description: as §3, §4

V79 and LZ cells = test: Cell survival / cytotoxicity, V79 and LZ cells (sulforhodamine B); type: cell-based, hamster; conditions: 72 hours
Description: (§1) FIG. 5. Cell survival studies and LD50 determination showing cytotoxicity of a ^99 Tc-isonitrile complex that is transported by the P-glycoprotein in vitro. Survival of parental V79 and multidrug resistant LZ cells (A) and parental Alex and multidrug resistant Alex/A.5 cells (B) in increasing concentrations of carrier-added ^99 Tc-MIBI. Methods: Cell survival assays were performed by plating 4,000-20,000 cells per well in 96 well microtiter plates in triplicate in three separate experiments. V79 and LZ cells were grown essentially as described in Example 2 while Alex and Alex/A.5 were grown as described by Goldstein, L., et al., J. Natl. Cancer Inst. 81:116 (1989). Multidrug resistant cells were cultured in drug free media for 72-96 hours prior to culture in ^99 Tc-MIBI. Surviving cells were assayed by staining with sulforhodamine B (Mazzanti, R., et al., J. Cell Pharmacol. 1:50 (1990)) at 72 hours for V79 and LZ cells or 96 hours for Alex and Alex A.5 cells. Survival was expressed as the percentage of surviving cells relative to growth in alpha-MEM media without ^99 Tc-MIBI. […] LD50 determinations were obtained by interpolation from the cell survival curves.
(§2) Micromolar concentrations of carrier-added 99Tc-MIBI is shown to be cytotoxic in hamster lung fibroblast cells (A) and human carcinoma cells (B) (FIG. 5). […]

[3] = whole body imaging agent; cited from earlier work
Alex and Alex/A.5 cells = test: Cell survival / cytotoxicity, Alex and Alex/A.5 cells (sulforhodamine B); type: cell-based, human
Description: as §1, §2

cells and mitochondria = conditions: cited from earlier work
[4] = test system: P-glycoprotein enriched membrane vesicles; conditions: multidrug resistant cell vesicles; cited from earlier work

For `C=C[C@H]1C[N@@]2CC[C@H]1C[C@@H]2[C@@H](O)c1ccnc2ccc(OC)cc12` [Quinidine], the “Inhibition of photoaffinity labeling of P-glycoprotein by vinblastine analog” value (P-glycoprotein) is listed as “inhibited”.
For `c1ccc([P+](c2ccccc2)(c2ccccc2)c2ccccc2)cc1` [TPP^+], the “Toxic effects on mitochondrial function” value (mitochondrial function) is listed as “toxic effects on mitochondrial function”.
In the case of `[99Tc].[C-]#[N+]CC(C)(C)OC.[C-]#[N+]CC(C)(C)OC.[C-]#[N+]CC(C)(C)OC.[C-]#[N+]CC(C)(C)OC.[C-]#[N+]CC(C)(C)OC.[C-]#[N+]CC(C)(C)OC` [Tc-MIBI, hexakis (2-methoxyisobutyl isonitrile) technetium-99m (I)], the “Uptake within known bronchial carcinomas” value (tumors) is listed as “uptake”, the “Uptake within mediastinal and pulmonary metastasis from thyroid cancer” value (tumors) is listed as “uptake” and the “Uptake within untreated malignant lung lesions” value (tumors) is listed as “uptake”. The “Plateau net accumulation in V79 cells relative to LZ cells” value [1] was 20 fold, the “Net accumulation of Tc-MIBI” value [2] was 0.3 fmoles Tc-MIBI/mg protein per nmolar extracellular Tc-MIBI and the “Toxicity in drug-sensitive V79 compared to multidrug-resistant derivative (LZ)” value (V79 and LZ cells; V79 vs LZ) was 11 fold. The “Cytotoxicity in hamster lung fibroblast cells” value (V79 and LZ cells; micromolar concentrations, carrier-added) was “cytotoxic”, the “Toxic activity at imaging doses” value [3] was “no toxic activity; also recorded: without chemotoxic effects” and the “Toxicity in drug-sensitive human Alexander cells compared to multidrug-resistant derivative (Alex/A.5)” value (Alex and Alex/A.5 cells; Alex vs Alex/A.5, 96 hours) was 13 fold. The “Cytotoxicity in human carcinoma cells” value (Alex and Alex/A.5 cells; micromolar concentrations, carrier-added, 96 hours) was “cytotoxic”.
For `CCOC(=O)C1=C(C)NC(C)=C(C(=O)OCCNC(=O)c2ccc(N=[N+]=[N-])cc2)C1c1ccccc1C(F)(F)F` (centres unmarked) [azidopine], the “Inhibition of photoaffinity labeling of P-glycoprotein by vinblastine analog” value (P-glycoprotein) is listed as “inhibited”.
For `COc1cccc2c1C(=O)c1c(O)c3c(c(O)c1C2=O)C[C@@](O)(C(C)=O)C[C@@H]3O[C@H]1C[C@H](N)[C@H](O)[C@H](C)O1` [daunomycin], the “Inhibition of photoaffinity labeling of P-glycoprotein by vinblastine analog” value (P-glycoprotein) is listed as “inhibited”.
In the case of `COC(=O)[C@H]1[C@H]2C[C@@H]3c4[nH]c5cc(OC)ccc5c4CCN3C[C@H]2C[C@@H](OC(=O)c2cc(OC)c(OC)c(OC)c2)[C@@H]1OC` [reserpine], the “Inhibition of photoaffinity labeling of P-glycoprotein by vinblastine analog” value (P-glycoprotein) is given as “inhibited”.
For `COC(=O)c1ccccc1-c1c2ccc(=N)cc-2oc2cc(N)ccc12` [rhodamine 123], the “Toxicity to cells and mitochondria” value (cells and mitochondria) is listed as “toxic to cells and mitochondria” and the “Toxic effects on mitochondrial function” value (mitochondrial function) is listed as “toxic effects on mitochondrial function”.
In the case of `CC[C@]1(O)C[C@@H]2CN(CCc3c([nH]c4ccccc34)[C@@](C(=O)OC)(c3cc4c(cc3OC)N(C)[C@H]3[C@@](O)(C(=O)OC)[C@H](OC(C)=O)[C@]5(CC)C=CCN6CC[C@]43[C@@H]65)C2)C1` [vinblastine], the “Inhibition of labeled vinblastine accumulation in vesicles” value [4] is given as “inhibited”.
In the case of `CC[C@]1(O)C[C@H]2CN(CCc3c([nH]c4ccccc34)[C@@](C(=O)OC)(c3cc4c(cc3OC)N(C=O)[C@H]3[C@@](O)(C(=O)OC)[C@H](OC(C)=O)[C@]5(CC)C=CCN6CC[C@]43[C@@H]65)C2)C1` [vincristine], the “Inhibition of labeled vinblastine accumulation in vesicles” value [4] is listed as “inhibited” and the “Inhibition of photoaffinity labeling of P-glycoprotein by vinblastine analog” value (P-glycoprotein) is listed as “inhibited”.
